Measurements reported in US10722484B2, “Methods of cancer treatment” (K-Gen, Inc., priority 2016, dated 2020).
Read-outs that look alike come from different tables or passages of the source.

Key:
[1] = test system: A549 lung cancer cell line; test: Combination viability/proliferation assays (384-well IC50 ratio, 96-well MacSynergy II); assay type: cell-based; conditions: for Ratio ([…] DMSO IC50/combination IC50): NC: no change
Procedure: (§1) A 96-well MacSynergy II format for combination test was also used. […] The analysis was done with the SQRT(Data) scale and the four parameter Hill curve was fitted using XLfit5.1 (the MacSynergy II Excel Spreadsheet) for the inhibition data. Synergy (positive number) or Antagonism (negative number) volumes were calculated. […] Three-dimensional MacSynergy II graphs were generated where positive values indicated synergism and negative values indicated antagonism.

[2] = test system: MiaPaCa-2; test: Combination viability/proliferation assays; assay type: cell-based
Procedure: as §1

[3] = test system: Namalwa (Burkitt's lymphoma); test: Combination viability/proliferation assays; conditions: K101A (0.1 μM) or K102 (0.001 μM)
Procedure: Briefly, cells at density of 1,000-10,000 cells/well in 96-well plates or 200-1600 cells/well in 384-well plates were seeded and incubated at 37° C. for 24 hours before addition of compounds. A series of 9 different concentrations of compound stocks (500×) were prepared by 3-fold serial dilutions in DMSO. […] After 96 hours of incubation, 35 μL or 50 μL of CellTiter Glo reagent (Promega) was added to each well and luminescence was measured after 10 minutes using EnVision (PerkinElmer). Luminescence from cells treated with DMSO alone was set as Max and % of inhibition was calculated as follows: Inhibition %=(Max-Sample value)/Max*100. Data were analyzed using XLfit software (ID Business Solutions Ltd.) or GraphPad software and IC50, relative IC50, and % of top inhibition were calculated.
Various drugs or compounds (Table 10) were screened and assayed in 384-well plates as 9-point 3-fold dilution series alone and in combination with 2-3 doses of the specified PKC activator compounds (e.g., K101A, K101E, and K102). The top concentration for the tested PKC activator compound was set at roughly the IC50 when the same testing compound was used as a single agent assayed in the same cell line. The next dose was either 3-fold or 10-fold dilution from the top concentration. […]

CS(=O)(=O)c1ccc(C(=O)Nc2ccc(Cl)c(-c3ccccn3)c2)c(Cl)c1 [Vismodegib]
Combination in A549: K101A (synergism/antagonism) [1]: Synergism | Combination in A549: K102 (synergism/antagonism) [1]: Synergism | effect in combination with the PKC activator compounds in inhibiting the growth of A549 cells [1]: strong synergy | inhibition of cell proliferation by the agent alone [1]: did not inhibit | inhibition of proliferation by the agent alone ([2]; alone at 10 μM): did not inhibit | effect in combination with K101A or K102 (synergy) ([2]; at 1 μM): not | effect in combination with K101A or K102 ([2]; at 10 μM): synergy

CC[C@H](Nc1ncnc2[nH]cnc12)c1nc2cccc(F)c2c(=O)n1-c1ccccc1 [Idelalisib]
Ratio ([…] DMSO IC50/combination IC50) ([1]; A549, in combination with 0.0002 μM K102): 0.81 | Ratio ([…] DMSO IC50/combination IC50) ([1]; A549, in combination with 0.002 μM K102): 1.76 | Ratio ([…] DMSO IC50/combination IC50) ([1]; A549, in combination with 0.005 μM K101A): 1.04 | Ratio ([…] DMSO IC50/combination IC50) ([1]; A549, in combination with 0.02 μM K102): 3.55 | Ratio ([…] DMSO IC50/combination IC50) ([1]; A549, in combination with 0.05 μM K101A): 1.89 | Ratio ([…] DMSO IC50/combination IC50) ([1]; A549, in combination with 0.5 μM K101A, ratio >2 synergistic, <0.5 antagonistic): 5.05 | effect in combination with the PKC activator compounds in inhibiting the growth of A549 cells ([1]; PKC activator compounds (K101A, K101E, K102)): strong synergy | Combination in A549: K101A (synergism/antagonism) ([1]; agent assayed in combination with K101A, A549, * 2-3 concentrations, # full concentration ranges): Synergism | Combination in A549: K101E (synergism/antagonism) ([1]; agent assayed in combination with K101E, A549): Synergism | Combination in A549: K102 (synergism/antagonism) ([1]; agent assayed in combination with K102, A549, * 2-3 concentrations, # full concentration ranges): Synergism | effect in combination with K101A or K102 [3]: synergistic anti-proliferative effect | increase of inhibition ([3]; roughly 0.03-3 μM idelalisib/CAL-101): at least 20%
